# Results reported in PMC7217877, “N-AS-triggered SPMs are direct regulators of microglia in a model of Alzheimer’s disease” (Nature Communications, 2020).
# Columns and labels:
# [1] = stability (isomerization) of acetyl sphingosine isomers in phosphate buffer pH 7.4 (LC-ELSD); type: physicochemical
# Experimental: To a solution of 1-O-AS (0.25 mg) or 3-O-AS (0.25 mg) in water (400 μl) and DMSO (50 μl) at RT was added sodium phosphate buffer (pH 7.4, 0.1 M, 50 μl). The solution was mixed homogeneously with micropipette and was incubated at 25 °C for 10 min. Reverse-phase HPLC was performed using Agilent 1220 coupled with Agilent 1260 Infinity ELSD. Phenomenex Kinetex 1.7 μm C8 100 A ([…] LC column) at a flow rate of 0.5 ml min^−1 was used. A gradient of acetonitrile with 0.1% formic acid was used as an eluent.
# COX2 = test: SphK1-mediated COX2 acetylation with [14C] acetyl-CoA (ATP competition, SphK1 mutants; Supplementary Fig 1h,i); type: biochemical, human; details: ATP 0-1000 µM as competitor of acetyl-CoA
# Excerpt: Single point mutations in SphK1 (R56A, R57A, R24A, R185A, D178A, and F192A) and COX2 (S565A, N181A, T564A, and S567A) were generated using the In-Fusion Cloning Kits (Clontech) and ORF cDNA expression plasmids of human SphK1 and COX2 gene (Sino Biological Inc, HG15679-NH and HG12036-NH), according to the manufacturer’s instructions. The forward and reverse primers described in Supplementary Table 4. The SphK1 WT, SphK1 mutants, COX2 WT, and COX2 mutant plasmids were transformed in the One shot TOP 10 competent cell (Invitrogen). The bacteria were grown in Luria-Bertani (LB, Invitrogen) plates supplemented with 50 μg ml^−1 kanamycin (Sigma-Aldrich) at 37 °C. The bacterial cell pellets were resuspended in lysis buffer containing 20 mM sodium phosphate (GE Healthcare), 500 mM NaCl (GE Healthcare), 20 mM imidazole (pH 7.4) (GE Healthcare), 0.2 mg ml^−1 lysozyme (Sigma-Aldrich), 20 μg ml^−1 DNase I (Roche), 1 mM MgCl2 (Sigma-Aldrich), and 1 mM PMSF (Sigma-Aldrich) before being lysed by sonication and clarified by centrifugation at 15,493×g for 10 min. Proteins were purified from the soluble fraction using His-Spin Trap columns (GE Healthcare) and the binding and acetylation assays were performed.
# Acetylation assays were performed according to previously described procedures with minor modifications. […] N-AS (2 μCi, ARC UK Ltd, ARC-1024) at 37 °C for 2 h. [^14C] aspirin (2 μCi, ARC UK Ltd, ARC-0473) was conducted as the positive control. The reactions were terminated by placing the reaction tubes in ice for 5 min. To evaluate in vivo neuronal and microglial COX2 acetylation, 10 μCi [^14C] N-AS was orally administrated to 9-months-old WT and APP/PS1 mice. After 1 h, neuron and microglia were isolated and sonicated in culture media. To immunoprecipitate acetylated COX2, the sample was incubated with COX2 antibody (Abcam, ab15191) at 4 °C for 24 h and precipitated by adding 50 μl of protein-A sepharose (GE Healthcare). Acetylated COX2 proteins bound to the beads were analyzed using a Tri-Carb 3110TR liquid scintillation counter (Perkin-Elmer).
# [2] = system: immortalized human microglia; test: LM-SPM profile of human microglia (LC-MS/MS, Supplementary Table 3, Fig 6d); type: cell-based
# [3] = system: immortalized human microglia; test: ac-S565 COX2 in human microglia (western blot, immunofluorescence, Supplementary Fig 6b,c); type: cell-based; details: zileuton with N-AS in Aβ-treated human microglia vs without zileuton
# Experimental: To confirm the generation and roles of N-AS in neurons, cells from E18 C57BL/6 mice were prepared as previously described. Cortices were dissected and then dissociated followed by incubation in papain (Worthington) at 37 °C for 15 min. Neurons were plated on poly-L-lysine-coated coverslips with neuronal culture medium, serum-free Neurobasal medium (Gibco) containing 2% B27 supplements (Gibco), 1 mM Glutamax supplement (Gibco), and 100 U ml^−1 streptomycin/ 100 U ml^−1 penicillin (Gibco) at 37 °C in a humidified atmosphere of 5% CO2. Aβ 1–42 (10 μM, 24 h, Invitrogen, 03112) was exposed to neurons and the cells were analyzed for the generation and roles of N-AS. Primary astrocyte cultures were prepared from C57BL/6 mice as described previously. In brief, after removal of the meninges, postnatal day 7 (P7) mouse brain tissues were minced and incubated in a rocking water bath at 37 °C for 30 min in the presence of 0.25% trypsin-EDTA (Sigma-Aldrich). Enzyme-digested dissociated cells were triturated with astrocyte-specific medium (DMEM/F12 containing 10% FBS and 1% penicillin-streptomycin) and centrifuged at 155×g for 8 min. The pellet was resuspended in astrocyte-specific medium and passed through a 40-μm cell strainer. The filtrate was allowed pre-adherence for 30 min to remove any contamination from fibroblasts before being seeded in dishes and the addition of astrocyte-specific medium. To split the cells, Ara-C was added to the dishes and they were then placed in a heated shaker for 6–7 h. The medium was removed from the dishes, and trypsin-EDTA was added to the dish and incubated at 37 °C for 5–10 min. After centrifugation at 155×g for 8 min, the supernatant was removed, and the astrocytes were maintained in culture by feeding […] with astrocyte-specific medium. Primary microglia cultures were prepared from C57BL/6 mice as described previously. In brief, the cortices of 2-months-old mice were minced in Hibernate A (Gibco)/B27 supplements (Gibco) medium and dissociated using papain (Worthington) solution. After tissue trituration, cells were separated by Optiprep (Sigma-Aldrich) density gradient centrifugation. Microglia were plated with microglia-specific medium (DMEM/F12 containing 10% FBS and 1% penicillin-streptomycin). The immortalized human microglia (Applied Biologics Materials, T0251) were cultured in PriGrow III (Applied Biologics Materials, TM003) (supplemented with 10% FBS and 1% penicillin-streptomycin) at 37 °C in a humidified atmosphere of 5% CO2. […] The human microglia treated with Aβ 1–42 and/or zileuton was incubated with N-AS (2.5 μM, 2 h, Sigma-Aldrich, 01912), and were analyzed for the generation and roles of N-AS.
# Thioflavin S (Sigma-Aldrich) staining was carried out according to previously described procedures. We used 6E10 (mouse, 1:100, Signet, SIG39300), anti-20G10 (mouse, 1:1000, provided by D. R. Howlett, GlaxoSmithKline, Harlow, Essex, UK) for Aβ42, anti-G30 (rabbit, 1:1000, provided by D. R. Howlett) for Aβ40, SMA (mouse, 1:400, Sigma-Aldrich, A2547), AT8 (mouse, 1:500, Thermo Fisher Scientific, MN1020), Caspase-3 (mouse, 1:200, Novus Biologicals, NB100-56708), ac-S565 (rabbit, 1:100), COX2 (mouse, 1:250, Thermo Fisher Scientific, 35-8200), Iba1 (rabbit, 1:500, Wako, 019-19941 and goat, Abcam, ab5076), NeuN (mouse, 1:500, Millipore, MAB177), GFAP (rabbit, 1:500, Dako, N1506 and chicken, 1:500, Abcam, ab4674), and Lamp1 (mouse, 1:200, Abcam, ab24170). The sections were analyzed with a laser-scanning confocal microscope (FV3000; Olympus) or with a BX51 microscope (Olympus). MetaMorph software (Molecular Devices) was used to quantification. Three-dimensional reconstruction of microglia was recorded and analyzed using IMARIS software (Bitplane)[11]. […]
# [4] = system: immortalized human microglia; test: live-cell phagocytosis assay (bead uptake, Supplementary Fig 6e,f); type: cell-based; details: zileuton with N-AS in Aβ-treated human microglia
# Experimental: Live-cell phagocytosis assays were performed according to previously described procedures with minor modifications. Briefly, in a glass bottom cell culture dish (SPL, 101350), adult SV40 immortalized human microglia cells (Applied Biologics Materials, T0251) were seeded for phagocytosis assay. […] After incubation, the microglia were treated with 0 or 2.5 μM N-AS (Sigma-Aldrich, 01912) at 37 °C for 2 h. FITC beads (Invitrogen) preopsonized in FBS (Gibco) were added at a concentration at 0.01% and then immediately observed using a laser scanning confocal microscope equipped with a live cell chamber system (FV3000, Olympus) for 2 h. Confocal images were collected every 5 min for 2 h and analyzed using the ImageJ software (National Institutes of Health).
smiles,measurement,setting,value
"CCCCCCCCCCCCC/C=C/[C@@H](O)[C@@H](N)COC(C)=O.O=C(O)C(F)(F)F [1-O-AS, (2S,3R,E)-1-Acetoxy-3-hydroxyoctadec-4-en-2-aminium trifluoroacetate]",time to isomerization to N-AS,[1],less than 10 min
"CCCCCCCCCCCCC/C=C/[C@@H](OC(C)=O)[C@@H](N)CO.O=C(O)C(F)(F)F [3-O-AS, (2S,3R,E)-3-Acetoxy-1-hydroxyoctadec-4-en-2-aminium trifluoroacetate]",time to isomerization to N-AS,[1],less than 10 min
Nc1ncnc2c1ncn2[C@@H]1O[C@H](COP(=O)(O)OP(=O)(O)OP(=O)(O)O)[C@@H](O)[C@H]1O [ATP],"SphK1-mediated COX2 acetylation, in words",COX2,inhibited in a concentration dependent manner
"CC(c1cc2ccccc2s1)N(O)C(N)=O (centres unmarked) [zileuton, reference compound]","LTB4, in words",[2]; zileuton treatment,LTB4 was not detected
same,"PGE2, in words",[2]; zileuton treatment,reduced PGE2
same,"production of N-AS-triggered SPMs, in words",[2]; zileuton with N-AS in Aβ-treated human microglia,inhibited
same,"N-AS-induced COX2 acetylation, in words",[3],no significant
same,"restoration of phagocytic capacity, in words",[4],inhibited
